Results published in patent US8551952B2, “Methods for the treatment and prevention of ocular disorders” (Scynexis, Inc., priority 2006, dated 2013).
Where two headings read alike, the source gives them in different places.

Tests used:
[1] = system: TNF-α; conditions: read-out: Approximate IC50 for cytokine production TNF-α; human T-lymphocytes stimulated with anti-CD3/anti-CD28 beads, 24 hours; average of cultures of two donors
Description: (§1) Assays with human cells are used to determine if compounds I) inhibit T-cell activation (using cytokine release as a biomarker), and 2) reduce or prevent cytokine-induced pathologies.
(§2) Compounds were incubated with stimulated human T-lymphocytes in an in vitro system designed to measure cytokine production; cytokine production is indicative of T-cell activation and consequential cytokine-induced damage in vivo. […] Cells were treated in triplicate with compounds or vehicle (DMSO) in cell culture medium for 2 hours at 37 deg C. Cells were then stimulated with 5 μL of anti-CD3/anti-CD28 ExpandBeads (DynaBeads, Invitrogen 111.31) and incubated for 24 hours. Compounds were tested at three concentrations: 0.02, 0.2 and 2 μM. Untreated controls were performed for each cytokine marker. The following cytokines were quantitatively determined using specific ELISA kits, according to manufacturer instructions: IL2 (Eli-pair, Diaclone), IL4 (ImmunoTools 313.300.49), tumor necrosis factor alpha (TNFα, ImmunoTools 313.330.1), and Interferon gamma (IFN-γ) Eli-pair, Diaclone).

[2] = system: IL4; conditions: read-out: Approximate IC50 for cytokine production IL4; human T-lymphocytes stimulated with anti-CD3/anti-CD28 beads, 24 hours; average of cultures of two donors
Description: as §1, §2

[3] = system: IL2; conditions: read-out: Approximate IC50 for cytokine production IL2; human T-lymphocytes stimulated with anti-CD3/anti-CD28 beads, 24 hours; average of cultures of two donors
Description: as §1, §2

[4] = system: IFN-γ; conditions: read-out: Approximate IC50 for cytokine production IFN-γ; human T-lymphocytes stimulated with anti-CD3/anti-CD28 beads, 24 hours; average of cultures of two donors
Description: as §1, §2

[5] = system: T-cell proliferation (T-cells isolated from mouse spleens); conditions: read-out: IC50 MLR; C57BL/6 responder and irradiated BALB/c stimulator spleen cells, 5 days
Description: Murine Mixed Lymphocyte Response (MLR) assay: This assay monitored T-cell proliferation by measurement of tritiated thymidine incorporation into DNA of T-cells isolated from mouse spleens; T-cell proliferation is directly proportional to tritium incorporation into DNA. Pooled spleen cells were prepared from three mice each of two strains: three C57BL/6 and three BALB/c mice. The C57BL/6 mice were used as the Responders (R) and BALB mice were the Stimulators (S) in the MLR. Complete medium consisted of RPMI 1640 supplemented with 25 mM HEPES, 10% heat-inactivated low background fetal bovine serum, 50 μM 2-mercatoethanol, 2 mM L-glutamine, and antibiotics.
The BALB/c spleen cells were gamma irradiated at 3000 Roentgen in a Bevill irradiator and washed once with medium to use as S cells; the stock of S cells was 1.6×10^6/mL in complete medium. The R cells were stocked at 8×10^5/mL in complete medium. Final cell densities were 2×10^5 R and 4×10^5 S per test well in a 96-well microtiter plate. Compounds were diluted from a 10 mM stock solution in DMSO into culture medium; compounds were tested at 10 concentrations between 0.001 and 30 μM (three-fold dilutions).
Background control wells contained 150 μL of medium/0.3% DMSO and 50 μL of R cells (2×10^5/well). All other wells contained 100 μL of medium/0.3% DMSO or compound (also in 0.3% DMSO), 50 μL of R cells (2×10^S/well), and 50 μL of S cells (4×10^5/well). Plates were incubated at 37° C. in 5% CO2 for 5 days, and subsequently pulsed with 1 μCi/well of 3H-thymidine for 6-18 hours. Cells were harvested, and tritium incorporation was measured using a scintillation counter.

[6] = artificial tear formulation
Description: The solubilities of compounds in artificial tear formulations were determined using turbidimetric titration (Schote, et al., 2002. J Pharm Sciences 91(3):856). The different tear formulations are buffered and contain various physiological electrolytes including, sodium, potassium, phosphate, and chloride. The formulations differ primarily in the “active” ingredients that provide lubrication and viscosity.

[7] = system: chorio-allantoic membranes (CAM) of fertilized chicken eggs; conditions: for Classification: HET-CAM classification of irritation potential; for Total Score: HET-CAM, sum of scores, average across eggs
Description: In this test, chorio-allantoic membranes (CAM) of fertilized chicken eggs are exposed to a solution of the test substance in sterile water. During an incubation period of approximately 5 minutes, irritancy is assessed by visual inspection of the CAM blood vessel network for haemorrhage, lysis and/or coagulation. The time of onset or appearance of each of these effects is scored numerically, the scores are summed to give a single numerical value, and an average numerical score across several eggs is obtained.

[8] = system: eyes of rabbits; conditions: 0.05% (w/w) in an artificial tear formulation, instillation in right eyes over three days
Description: The compounds of the invention were evaluated for tolerability upon instillation in the eyes of rabbits over a three day test period. Rabbits receive five instillations within 20 minutes of fifty microliters of a solution of the test substance in vehicle once on Day 1, twice on Day 2 and four times on Day 3 in the right eyes. Evaluation of ocular irritancy was performed using the Draize scale (Draize et al. J. Pharmacol. Exp. Ther. 1944. 82: 377).

[9] = HET-CAM score, approximately 5 minutes incubation

Compound	IC50 [1]	IC50 [2]	IC50 [3]	IC50 [4]	IC50 [5]	Minimum Solubility ([6]; pH 6.2, Polyethylene glycol 400 (1%), Polyvinyl alcohol (1%))	Minimum Solubility ([6]; pH 6.7 (adjusted with HCl from 7.4), Dextran 70 (0.1%), Hydroxypropyl methyl-cellulose 2910 (0.3%))	Minimum Solubility ([6]; pH 6.8, Carboxymethylcellulose sodium (0.5%))	Minimum Solubility ([6]; pH 7.3, Propylene Glycol (0.95%), Glycerin (0.3%))	Minimum Solubility ([6]; pH 7.4, Dextran 70 (0.1%), Hydroxypropyl methyl-cellulose 2910 (0.3%))	Classification [7]	Lysis [7, 9]	Total Score [7]	Ocular tolerability (Draize scale) [8]	Coagulation [7, 9]	Haemorhage [7, 9]
3-[2-(morpholin-4-yl)ethoxy]cyclosporin [F]	~200 nM	~200 nM	~20 nM	~200 nM	500 nM											
C/C=C/C[C@@H](C)[C@@H](O)[C@H]1C(=O)N[C@@H](CC)C(=O)N(C)C(OCCN(C)C)C(=O)N(C)[C@@H](CC(C)C)C(=O)N[C@@H](C(C)C)C(=O)N(C)[C@@H](CC(C)C)C(=O)N[C@@H](C)C(=O)N[C@H](C)C(=O)N(C)[C@@H](CC(C)C)C(=O)N(C)[C@@H](CC(C)C)C(=O)N(C)[C@@H](C(C)C)C(=O)N1C (stereo partly shown) [Compound A, 3-[2-(N,N-dimethylamino)ethoxy]cyclosporin]	~2000 nM	~2000 nM		~2000 nM	200 nM	151 µM	350 µM	130 µM	117 µM	141 µM	Slightly irritant	3.5	3.5	very well tolerated		
CC=CCC(C)C(O)C1C(=O)NC(CC)C(=O)N(C)C(OCCN2CCCCC2)C(=O)N(C)C(CC(C)C)C(=O)NC(C(C)C)C(=O)N(C)C(CC(C)C)C(=O)NC(C)C(=O)NC(C)C(=O)N(C)C(CC(C)C)C(=O)N(C)C(CC(C)C)C(=O)N(C)C(C(C)C)C(=O)N1C (stereo not shown) [D, 3-[2-(piperidin-1-yl)ethoxy]cyclosporin]	~2000 nM	~2000 nM	~1000 nM	~1000 nM	200 nM						Slightly irritant	3	3.0		0	0
